Molecules are shown by their SMILES.

In one test the target is T1, ADAMTS4 (Homo sapiens, UniProt O75173).
T1 construct: purchased R&D 4307-AD
T1 sequence (O75173 213-685 limits assumed): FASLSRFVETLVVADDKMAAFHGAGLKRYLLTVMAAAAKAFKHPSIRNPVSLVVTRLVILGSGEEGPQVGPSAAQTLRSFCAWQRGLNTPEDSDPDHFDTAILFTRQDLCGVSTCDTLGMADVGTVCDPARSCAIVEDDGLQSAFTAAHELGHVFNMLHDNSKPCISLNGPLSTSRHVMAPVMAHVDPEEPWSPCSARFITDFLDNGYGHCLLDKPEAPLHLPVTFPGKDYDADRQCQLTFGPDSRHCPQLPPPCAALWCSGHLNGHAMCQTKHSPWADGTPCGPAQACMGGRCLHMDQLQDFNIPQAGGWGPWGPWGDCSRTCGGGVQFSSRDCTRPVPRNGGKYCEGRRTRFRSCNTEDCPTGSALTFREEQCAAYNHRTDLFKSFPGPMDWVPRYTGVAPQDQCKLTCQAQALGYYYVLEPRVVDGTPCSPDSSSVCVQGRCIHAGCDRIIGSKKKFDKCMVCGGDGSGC
Nature of the test: Selectivity assay for ADAMTS-7 modulators (FRET), ADAMTS4. It counts as biochemical. Particulars: 50 nM enzyme (R&D 4307-AD), 1 μM Dabcyl/Edans FRET substrate, 120 min at 32° C. On the procedure: The respective enzyme (see table 2 below) was diluted in reaction buffer (50 mM Tris, 2.5 μM ZnCl2, 0.05% BSA, 0.001% Brij, pH 7.5 for ADAM17; 50 mM Tris 7.5, 150 mM NaCl, 10 mM CaCl2, 0.05% Brij for all other enzymes) to the respective concentration and 25 μl were transferred into each well of a 384-well white microtiter plate (Greiner Bio One 781075). 1 μl test compound solution (dissolved in DMSO, at the corresponding concentration) or pure DMSO as a control was added per well. The enzymatic reaction was initiated by addition of 25 μl of the respective concentration of the respective FRET substrate (see table 2 below) in reaction buffer. The microtiter plate was incubated for 120 min at the temperature of 32° C. The increase of fluorescence intensity was measured in appropriate fluorescence plate reader (e.g. TECAN Ultra) using the respective wavelengths for excitation and emission. IC50 values were calculated from percentage of inhibition of enzyme activity as a function of test compound concentration.

Test [1] concerns the target T2, Purified recombinant ADAMTS-7 (rat prodomain/human catalytic domain, SEQ ID No. 01 or 02) (Homo sapiens, UniProt Q9UKP4).
T2 construct: rat ADAMTS-7 signal peptide + prodomain (rat 1-217, Q1EHB3) (N); 2xStrep tag (C); 6xHis tag (C); made in house; host or cells: Expi293 cells
T2 sequence (Q9UKP4 237-537): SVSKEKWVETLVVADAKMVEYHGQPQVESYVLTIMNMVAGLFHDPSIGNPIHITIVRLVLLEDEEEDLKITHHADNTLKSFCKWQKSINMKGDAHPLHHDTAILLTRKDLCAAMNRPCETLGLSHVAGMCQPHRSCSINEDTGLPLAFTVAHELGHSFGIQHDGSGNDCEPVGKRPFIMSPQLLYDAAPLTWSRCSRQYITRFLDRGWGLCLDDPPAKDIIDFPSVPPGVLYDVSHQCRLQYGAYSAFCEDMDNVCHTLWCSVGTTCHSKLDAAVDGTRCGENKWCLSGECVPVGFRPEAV
Nature of the test: Assay for ADAMTS-7 enzymatic activity (FRET substrate cleavage). The test is classed as biochemical. To be noted: FRET substrate SEQ ID No. 11, 120 min at 32° C.; read-out: ADAMTS7-IC50. The procedure:
Purified recombinant ADAMTS-7 (as of SEQ ID No. 01 or SEQ ID No. 02) was diluted in reaction buffer (20 mM HEPES pH 8.0, 150 mM NaCl, 5 mM CaCl2, 0.004% Brij, 10 μM ZnCl2) fora concentration of approximately 20 nM. 25 μl of the solution were transferred into each well of a 384-well white microtiter plate (Greiner Bio-One 781075) and 1 μl test compound solution (modulator/inhibitor dissolved in DMSO, at the corresponding concentration) or pure DMSO as a control were added per well. […] Amino acids […] are derived from Thrombospondin-1 sequence (275-289). An additional carboxyl glutamic acid was added after the QXL520 quencher to increase substrate solubility. The microtiter plate was incubated for 120 min at the temperature of 32° C. The increase of fluorescence intensity was measured in appropriate fluorescence plate reader (e.g. TECAN Ultra) using excitation wavelength of 485 nm and emission wavelength of 520 nm. IC50 values were calculated from percentage of inhibition of ADAMTS-7 activity as a function of test compound concentration.

As a reminder, the IC50 is the concentration at which inhibition is half-maximal. `O=C1NC(=O)C(CNC(=O)c2cnn(-c3ccccc3)n2)(C2CCC2)N1` (racemic) [Example 52, rac-N-[4-cyclobutyl-2,5-dioxoimidazolidin-4-yl)methyl]-2-phenyl-2H-1,2,3-triazole-4-carboxamide]: the IC50 against ADAMTS4 was 14 µM; in test [1], 0.055 µM.

Regarding `O=C1NC(=O)C(CNC(=O)c2cnn(-c3ccccc3)n2)(CC2CC2)N1` (racemic) [Example 54, rac-N-[(4-(cyclopropylmethyl)-2,5-dioxoimidazolidin-4-yl)methyl}]-2-phenyl-2H-1,2,3-triazole-4-carboxamide], the IC50 at ADAMTS4 amounted to 25 µM; in test [1] it was 0.67 µM.

Regarding `CCCC1(CNC(=O)c2cnn(-c3ccccc3)n2)NC(=O)NC1=O` (racemic) [Example 55, rac-N-[(2,5-dioxo-4-propylimidazolidin-4-yl)methyl]-2-phenyl-2H-1,2,3-triazole-4-carboxamide], the IC50 against ADAMTS4 was determined as 19 µM; in test [1] it was 0.24 µM.

`CC(C)(C)C1(CNC(=O)c2cnn(-c3ccccc3)c2)NC(=O)NC1=O` (racemic) [Example 58, rac-N-[4-tert-butyl-2,5-dioxoimidazolidin-4-yl)methyl]-1-phenyl-1H-pyrazole-4-carboxamide]: the IC50 on ADAMTS4 turned out to be 5.6 µM; in test [1], 0.55 µM.

Regarding `O=C1NC(=O)C(CNC(=O)c2cnn(-c3ccccc3)n2)(C2CCOCC2)N1` (racemic) [Example 61, rac-N-[(4-(oxan-4-yl)-2,5-dioxoimidazolidin-4-yl)methyl]-2-phenyl-2H-1,2,3-triazole-4-carboxamide], the IC50 was 9.95 µM at ADAMTS4 and 0.128 µM in test [1].

Turning to `CC(C)C1(CNC(=O)c2cnn(-c3ccc(F)cc3)n2)NC(=O)NC1=O` (racemic) [Example 62, rac-N-[(2,5-dioxo-4-(propan-2-yl)imidazolidin-4-yl)methyl]-2-(4-fluorophenyl)-2H-1,2,3-triazole-4-carboxamide], the concentration for half-maximal inhibition (IC50) was 16 µM against ADAMTS4 and 0.042 µM in test [1].

In the case of `CC(C)(C)C1(CNC(=O)c2cnn(-c3ccc(F)cc3)n2)NC(=O)NC1=O` (racemic) [Example 63, rac-N-[(4-tert-butyl-2,5-dioxoimidazolidin-4-yl)methyl]-2-(4-fluorophenyl)-2H-1,2,3-triazole-4-carboxamide], the IC50 amounted to 6 µM on ADAMTS4 and 0.069 µM in test [1].

For `CCCC1(CNC(=O)c2cnn(-c3ccc(F)cc3)n2)NC(=O)NC1=O` (racemic) [Example 65, rac-N-[(2,5-dioxo-4-propylimidazolidin-4-yl)methyl]-2-(4-fluorophenyl)-2H-1,2,3-triazole-4-carboxamide], the figures for the IC50 (on ADAMTS4; in test [1]) were 19 µM and 0.17 µM, respectively.

As to `O=C1NC(=O)C(CNC(=O)c2cnn(-c3ccc(F)cc3)n2)(C2CCOCC2)N1` (racemic) [Example 67, rac-2-(4-fluorophenyl)-N-[4-(oxan-4-yl)-2,5-dioxoimidazolidin-4-yl)methyl]-2H-1,2,3-triazole-4-carboxamide], the IC50 was determined as 9.3 µM on ADAMTS4 and 0.26 µM in test [1].

Take `CCCCC1(CNC(=O)c2cnn(-c3ccc(F)cc3)n2)NC(=O)NC1=O` (racemic) [Example 68, rac-N-[(4-butyl-2,5-dioxoimidazolidin-4-yl)methyl]-2-(4-fluorophenyl)-2H-1,2,3-triazole-4-carboxamide]: the IC50 on ADAMTS4 came to 8.3 µM; in test [1] it was 0.12 µM.

As to `O=C1NC(=O)C(CNC(=O)c2cnn(-c3ccc(F)cc3)n2)(C2CCC2)N1` (racemic) [Example 69, rac-N-[(4-cyclobutyl-2,5-dioxoimidazolidin-4-yl)methyl]-2-(4-fluorophenyl)-2H-1,2,3-triazole-4-carboxamide], the IC50 came out at 35 µM at ADAMTS4 and 0.098 µM in test [1].

As to `CC(C)C1(CNC(=O)c2cnn(-c3ccc(F)cc3F)n2)NC(=O)NC1=O` (racemic) [Example 87, rac-2-(2,4-difluorophenyl)-N-[(4-isopropyl-2,5-dioxoimidazolidin-4-yl)methyl]-2H-1,2,3-triazole-4-carboxamide], the IC50 at ADAMTS4 was found to be 20 µM; in test [1], 0.098 µM.
